Data taken from PubChem BioAssay AID328 (DTP/NCI, 2004).
Values joined by “and” are separate entries in the source; they are usually repeats but may differ in a detail not shown here. Identical values can stand only once. Inconclusive results and toxic doses are left out. Starred links: 1 amine or outer side, 2 acyl side, 3 side chain; linkers in the order of their positions; H or OH if unused. Positions of bridges follow the written chain, without caps; N, C: chain ends. Non-standard residues stand in square brackets, D forms with d. Residues, ends and D or L forms follow the SMILES beside them. Chains are numbered I, II in the order given. Actinocin(9to1) = Cc1c2oc3c(C)ccc(C(=O)[*:1])c3nc-2c(C(=O)[*:2])c(N)c1=O; aThr = C[C@H](O)[C@H](N)C(=O)O; NMeV = CN[C@H](C(=O)O)C(C)C; Sar = CNCC(=O)O

System: BDF1 mice, P388 leukemia ip, median survival T/C
Experiment: NCI In Vivo Anticancer Drug Screen. Data for tumor model P388 Leukemia (intraperitoneal) in B6D2F1 (BDF1) mice
Details: endpoint: median survival time, higher = longer survival
Procedure, shortened: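 Antitumour effect was judged in vivo: survival in drug-treated mice, normalised to that of vehicle-dosed controls, gives the reported T/C.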

Cc1c2oc3c(C)ccc(C(=O)N[C@@H]4C(=O)N[C@H](C(C)C)C(=O)N5CCC[C@H]5C(=O)N(C)CC(=O)N(C)[C@@H](C(C)C)C(=O)O[C@H]4C)c3nc-2c(C(=O)N[C@@H]2C(=O)N[C@H](C(C)C)C(=O)N3CCC[C@H]3C(=O)N(C)CC(=O)N(C)[C@@H](C(C)C)C(=O)O[C@H]2C)c(N)c1=O (I: [aThr][dV]P[Sar][NMeV] / II: [aThr][dV]P[Sar][NMeV]; ester I:1-I:C, II:1-II:C; linker I:N-II:N via Actinocin(9to1))
T/C (dose: 0.03 mg/kg/injection, schedule: Q01DX009 (ip), vehicle: saline): 233 % of control
T/C (dose: 0.03 mg/kg/injection, schedule: Q04DX003 (ip), vehicle: saline + alcohol): 161 % of control
T/C (dose: 0.06 mg/kg/injection, schedule: Q04DX003 (ip), vehicle: saline + alcohol): 157 % of control
T/C (dose: 0.07 mg/kg/injection, schedule: Q01DX009 (ip), vehicle: saline): 250 % of control
T/C (dose: 0.1 mg/kg/injection, schedule: Q01DX001 (ip), vehicle: saline): 194 % of control
T/C (dose: 0.13 mg/kg/injection, schedule: Q01DX009 (ip), vehicle: saline): 100 % of control
T/C (dose: 0.13 mg/kg/injection, schedule: Q04DX003 (ip), vehicle: saline + alcohol): 184 % of control
T/C (dose: 0.2 mg/kg/injection, schedule: Q01DX001 (ip), vehicle: saline): 225 % of control
T/C (dose: 0.25 mg/kg/injection, schedule: Q01DX001 (ip), vehicle: saline): 178 % of control
T/C (dose: 0.26 mg/kg/injection, schedule: Q01DX001 (ip), vehicle: saline): 167 % of control
T/C (dose: 0.3 mg/kg/injection, schedule: Q04DX003 (ip), vehicle: saline): 100 % of control
T/C (dose: 0.35 mg/kg/injection, schedule: Q01DX001 (ip), vehicle: other): 166 % of control
T/C (dose: 0.35 mg/kg/injection, schedule: Q01DX001 (ip), vehicle: saline): 176 % of control and 185 % of control
T/C (dose: 0.35 mg/kg/injection, schedule: Q04DX003 (ip), vehicle: saline): 95 % of control
T/C (dose: 0.4 mg/kg/injection, schedule: Q01DX001 (ip), vehicle: water): 183 % of control
T/C (dose: 0.4 mg/kg/injection, schedule: Q04DX003 (ip), vehicle: saline): 90 % of control
T/C (dose: 0.5 mg/kg/injection, schedule: Q01DX001 (ip), vehicle: other): 192 % of control
T/C (dose: 0.5 mg/kg/injection, schedule: Q04DX003 (ip), vehicle: saline + alcohol): 79 % of control
T/C (dose: 0.54 mg/kg/injection, schedule: Q01DX001 (ip), vehicle: saline): 195 % of control
T/C (dose: 0.6 mg/kg/injection, schedule: Q01DX001 (ip), vehicle: saline): 223 % of control
T/C (dose: 0.8 mg/kg/injection, schedule: Q01DX001 (ip), vehicle: other): 236 % of control
T/C (dose: 0.9 mg/kg/injection, schedule: Q01DX001 (ip), vehicle: saline): 230 % of control
T/C (dose: 1.2 mg/kg/injection, schedule: Q01DX001 (ip), vehicle: saline): 225 % of control
T/C (dose: 3.1 micrograms/kg/injection, schedule: Q01DX001 (ip), vehicle: saline): 118 % of control
T/C (dose: 3.1 micrograms/kg/injection, schedule: Q01DX010 (ip), vehicle: saline): 170 % of control
T/C (dose: 3.1 micrograms/kg/injection, schedule: Q04DX003 (ip), vehicle: saline): 113 % of control
T/C (dose: 6.3 micrograms/kg/injection, schedule: Q01DX001 (ip), vehicle: saline): 122 % of control
T/C (dose: 12.5 micrograms/kg/injection, schedule: Q01DX009 (ip), vehicle: saline): 177 % of control
T/C (dose: 12.5 micrograms/kg/injection, schedule: Q01DX009 (ip), vehicle: water): 153 % of control
T/C (dose: 12.5 micrograms/kg/injection, schedule: Q01DX010 (ip), vehicle: saline): 225 % of control
T/C (dose: 12.5 micrograms/kg/injection, schedule: Q04DX003 (ip), vehicle: saline): 154 % of control
T/C (dose: 21.6 micrograms/kg/injection, schedule: Q01DX009 (ip), vehicle: saline + alcohol): 238 % of control
T/C (dose: 25.0 micrograms/kg/injection, schedule: Q01DX009 (ip), vehicle: saline + alcohol): 294 % of control and 162 % of control
T/C (dose: 25.0 micrograms/kg/injection, schedule: Q01DX009 (ip), vehicle: saline): 250 % of control and 274 % of control and 200 % of control
T/C (dose: 25.0 micrograms/kg/injection, schedule: Q01DX009 (ip), vehicle: water): 155 % of control
T/C (dose: 25.0 micrograms/kg/injection, schedule: Q01DX010 (ip), vehicle: saline): 245 % of control
T/C (dose: 25.0 micrograms/kg/injection, schedule: Q03HX024 (ip), vehicle: saline): 263 % of control
T/C (dose: 25.0 micrograms/kg/injection, schedule: Q04DX003 (ip), vehicle: saline): 154 % of control
T/C (dose: 30.0 micrograms/kg/injection, schedule: Q03HX024 (ip), vehicle: saline): 250 % of control
T/C (dose: 35.0 micrograms/kg/injection, schedule: Q03HX024 (ip), vehicle: saline): 100 % of control
T/C (dose: 36.0 micrograms/kg/injection, schedule: Q01DX009 (ip), vehicle: saline + alcohol): 241 % of control and 314 % of control
T/C (dose: 37.5 micrograms/kg/injection, schedule: Q01DX009 (ip), vehicle: saline + alcohol): 228 % of control and 169 % of control
T/C (dose: 38.9 micrograms/kg/injection, schedule: Q04DX003 (ip), vehicle: saline + alcohol): 174 % of control
T/C (dose: 50.0 micrograms/kg/injection, schedule: Q01DX001 (ip), vehicle: saline): 154 % of control
T/C (dose: 50.0 micrograms/kg/injection, schedule: Q01DX009 (ip), vehicle: saline + alcohol): 281 % of control and 294 % of control and 191 % of control
T/C (dose: 50.0 micrograms/kg/injection, schedule: Q01DX009 (ip), vehicle: saline): 268 % of control and 271 % of control and 352 % of control
T/C (dose: 50.0 micrograms/kg/injection, schedule: Q01DX009 (ip), vehicle: water): 301 % of control and 106 % of control
T/C (dose: 50.0 micrograms/kg/injection, schedule: Q01DX010 (ip), vehicle: other): 295 % of control
T/C (dose: 50.0 micrograms/kg/injection, schedule: Q01DX010 (ip), vehicle: saline): 295 % of control and 300 % of control
T/C (dose: 50.0 micrograms/kg/injection, schedule: Q04DX003 (ip), vehicle: saline): 177 % of control
T/C (dose: 60.0 micrograms/kg/injection, schedule: Q01DX009 (ip), vehicle: saline + alcohol): 314 % of control and 348 % of control
T/C (dose: 64.8 micrograms/kg/injection, schedule: Q04DX003 (ip), vehicle: saline + alcohol): 168 % of control
T/C (dose: 75.0 micrograms/kg/injection, schedule: Q01DX009 (ip), vehicle: saline + alcohol): 292 % of control and 99 % of control
T/C (dose: 75.0 micrograms/kg/injection, schedule: Q01DX009 (ip), vehicle: saline): 100 % of control
T/C (dose: 75.0 micrograms/kg/injection, schedule: Q04DX003 (ip), vehicle: saline + alcohol): 247 % of control
T/C (dose: 75.0 micrograms/kg/injection, schedule: Q04DX003 (ip), vehicle: saline): 257 % of control and 182 % of control
T/C (dose: 75.0 micrograms/kg/injection, schedule: Q04DX003 (ip), vehicle: water): 183 % of control
T/C (dose: 100.0 micrograms/kg/injection, schedule: Q01DX001 (ip), vehicle: saline): 168 % of control
T/C (dose: 100.0 micrograms/kg/injection, schedule: Q01DX009 (ip), vehicle: saline): 91 % of control and 107 % of control
T/C (dose: 100.0 micrograms/kg/injection, schedule: Q01DX009 (ip), vehicle: water): 336 % of control
T/C (dose: 100.0 micrograms/kg/injection, schedule: Q01DX010 (ip), vehicle: saline): 105 % of control and 120 % of control
T/C (dose: 100.0 micrograms/kg/injection, schedule: Q04DX003 (ip), vehicle: saline): 231 % of control
T/C (dose: 112.5 micrograms/kg/injection, schedule: Q04DX003 (ip), vehicle: saline + alcohol): 274 % of control and 161 % of control
T/C (dose: 150.0 micrograms/kg/injection, schedule: Q04DX003 (ip), vehicle: saline): 273 % of control and 306 % of control
T/C (dose: 200.0 micrograms/kg/injection, schedule: Q01DX001 (ip), vehicle: saline): 177 % of control
T/C (dose: 200.0 micrograms/kg/injection, schedule: Q01DX010 (ip), vehicle: saline): 90 % of control
T/C (dose: 225.0 micrograms/kg/injection, schedule: Q04DX003 (ip), vehicle: saline + alcohol): 290 % of control and 327 % of control and 182 % of control
T/C (dose: 300.0 micrograms/kg/injection, schedule: Q04DX003 (ip), vehicle: saline): 361 % of control
T/C (dose: 300.0 micrograms/kg/injection, schedule: Q04DX003 (ip), vehicle: water): 232 % of control
T/C (dose: 400.0 micrograms/kg/injection, schedule: Q01DX001 (ip), vehicle: saline): 227 % of control
T/C (dose: 400.0 micrograms/kg/injection, schedule: Q04DX003 (ip), vehicle: saline): 236 % of control
T/C (dose: 600.0 micrograms/kg/injection, schedule: Q04DX003 (ip), vehicle: saline + alcohol): 118 % of control
T/C (dose: 600.0 micrograms/kg/injection, schedule: Q04DX003 (ip), vehicle: water): 189 % of control
